Data from US20090104119A1, “Dendrimer Based Compositions And Methods Of Using The Same” (priority 2004, published 2009).

What was measured:
[1] = system: KB cells; assay: Binding and internalization of dendrimers by confocal microscopy; type: cell-based, human; details: 250 nM, 24 hours, compared to control conjugates
Description: (§1) Flow Cytometry and Confocal Microscopy. The standard fluorescence of the dendrimer solutions was quantified using a Beckman spectrofluorimeter. For flow cytometric analysis of the uptake of the targeted polymer, cells were trypsinized and suspended in PBS containing 0.1% bovine serum albumin (PBSB) and analyzed using a Becton Dickinson FACScan analyzer. The FL1-fluorescence of 10,000 cells was measured and the mean fluorescence of gated viable cells was quantified. Confocal microscopic analysis was performed in cells plated on a glass cover-slip, using a Carl Ziess confocal microscope. Fluorescence and differential interference contrast (DIC) images were collected simultaneously using an argon laser, using the appropriate filters for FITC.
(§2) The effect of free FA on the uptake of the dendrimers was tested in KB cells that express both high and low FAR. The binding of the conjugates to the low FAR-expressing KB cells was 30% of that of the high FAR-expressing cells for both the G5-FITC-FA and G5-FITC-FA-MTX (See, for e.g., FIG. 19, left panel). […] The binding and internalization of the dendrimers to KB cells was assessed by confocal microscopy. KB cells were incubated with 250 nM of the indicated dendrimers for 24 hours and confocal images were taken. Conjugates containing the targeting molecule FA internalized into KB cells within 24 h (See, e.g., FIG. 20).

[2] = system: low FAR-expressing KB cells; assay: Cellular uptake/binding of dendrimers in low-FAR KB cells, flow cytometry; type: cell-based, human
Description: (§3) Cell culture and treatment.
as §1, §2
Time course and dose dependent inhibition of cell growth.

[3] = Toxicity of dendrimer conjugates and free methotrexate in mice (body weight, histopathology); type: in vivo; details: occasional periportal lymphocytes, single-cell necrosis
Description: Delivery of targeted nanoparticle therapeutic. Twice weekly, SCID mice with s.c. KB xenografts, starting on day 4 after tumor implantation, received via the tail vein an injection of either targeted or nontargeted conjugate containing methotrexate, a conjugate without methotrexate, free methotrexate, or saline as a control. The compounds were delivered in a 0.2 mL volume of saline per 20 g of mouse. The single dose of methotrexate delivered each time equaled 0.33 mg/kg. The higher doses of 1.67 and 3.33 mg/kg free methotrexate were also tested. The conjugates were delivered at equimolar concentration of methotrexate calculated based on the number of methotrexate molecules present in a nanoparticle. The conjugate without methotrexate was delivered at equimolar concentration of dendrimer. In the initial trial, six groups of mice with five mice in each group received up to 15 injections. In the follow-up trial, mice received up to 28 injections dependent on their survival. The body weights of the mice were monitored throughout the experiment as an indication of adverse effects of the drug. Histopathology of multiple organs was done at the termination of each trial and each time mouse had to be euthanized due to toxic effects or tumor burden. Tissues from lung, heart, liver, pancreas, spleen, kidney, and tumor were analyzed. Additionally, cells were isolated from tumors, stained with targeted fluorescein-labeled conjugate, and tested for the presence of folic acid receptors using flow cytometer.
Toxicity of dendrimer conjugates. […] No gross toxicity, either acutely or chronically up to 99 days, was observed regardless of whether the dendrimer conjugate contained methotrexate. The weight was monitored throughout the experiment and no loss of weight was observed; in fact, the animals gained weight. At each time point, a gross examination and histopathology of the liver, spleen, kidney, lung, and heart were done. No morphologic abnormalities were observed on the histopathology examination.
The remaining experimental groups had very uniform body weight fluctuations nonindicative of toxicity when compared with control groups with saline or conjugate without methotrexate.

[4] = system: KB cells; assay: Inhibition of cell growth by XTT assay; type: cell-based, human
Description: as §3
Evaluation of dendrimer cytotoxicity.
Because the binding of the conjugate to KB cells reaches maximal uptake within 1 h (Quintana et al, 2002. Pharmaceutical Research 19: 1310-1316.), the effect of the G5-FI-FA-MTX on cell growth was initially tested by pre-incubation of cells with the conjugate for 1 h, followed by incubation in a drug-free medium for 5 d. […] When the cells were pre-incubated with dendrimers for 4 h, there was a modest decrease of about 10% in cell growth as determined by XTT assay. The cytotoxicity measurements were therefore done by incubation with the dendrimer for a minimum of 24 h, a pre-incubation time period shown to induce significant cytotoxicity.
The inhibition of cell growth induced by the conjugates was also tested by XTT assay which is based on the conversion of XTT to formazan by the active mitochondria of live cells (See, e.g., Roehm et al, J Immunol Methods 142, 257 (1991)).
As free FA blocks the uptake of the dendrimers as well as rescues cells from MTX-induced cytotoxicity, the effect of pre-incubation of cells with excess FA on the anti-proliferative effect of G5-FITC-FA-MTX was tested. KB cells were exposed to different concentrations of the conjugate or free MTX for 24 h in the absence or presence of 50 μM FA. The incubation medium was removed, the cells were rinsed and incubated with fresh medium for 5 additional days in the absence of the drugs, and the XTT assay was performed (See, e.g., FIG. 24, □, ▪, represents cells treated with MTX; Δ, ▴, represents cells treated with G5-FITC-FA-MTX).
The anti-proliferative effect of the MTX-conjugates was compared to conjugates that lacked either the FA or the FITC molecule. KB cells were incubated with 30 nM of the conjugates (=150 nM effective MTX concentration) for 24 h and the incubation medium was removed. The cells were rinsed and incubated for an additional 5 d in fresh medium in the absence of the drugs, and the XTT assay was performed.

[5] = system: KB cells which express a high cell surface FA receptor (FAR); assay: Cellular uptake/binding of dendrimers in high-FAR KB cells, flow cytometry; type: cell-based, human
Description: as §3, §1
The cellular uptake of the dendrimers was measured in KB cells which express a high cell surface FA receptor (FAR). The FA-conjugated dendrimers bound to the cells in a dose-dependent fashion, with 50% binding at 10-15 nM for both the G5-FITC-FA and G5-FITC-FA-MTX, while the control dendrimer G5-FITC was not detected in the KB cells (See, e.g., FIG. 18A). Identical binding curves were obtained for the G5-FITC-FA and G5-FITC-FA-MTX when the fluorescence obtained was normalized for the quenching observed in the standard solutions of the dendrimers (See e.g., FIG. 18B).
as §2

## G5-(Ac)82-(FITC)5-(FA)5-MTX5 [G5-FITC-FA-MTX]
[1]
  cell morphology indicating cytotoxicity: less adherent and rounded up
[2]
  binding to low FAR-expressing KB cells relative to high FAR-expressing cells: 30%
[2]; 50 μM FA, dendrimer 30 nM
  effect of free FA on uptake, low-FAR expressing cells: completely blocked
[3]
  liver slides versus saline controls: did not differ from that of control animals injected with saline
[4]; 1, 2 or 3 days
  inhibition of cell growth, XTT: time-dependent cytotoxicity
[4]; pre-incubated 4 h, XTT assay
  decrease in cell growth: about 10%
[4]; pre-incubation 1 h, then drug-free medium 5 d
  growth-inhibitory effect: failed to show any growth-inhibitory effect
[5]; 100 nM
  time to maximal binding: ≤ 30 min
[5]; 50 μM FA, dendrimer 30 nM
  effect of free FA on uptake, high-FAR expressing cells: completely blocked
